Counter-ions that a name gives are not always drawn.
Columns and labels:
[1] = tested on: slaughterhouse oocytes fertilized with sexed semen; test: In vitro fertilization (IVF) with sexed semen: embryo cleavage and blastocyst formation; format: cell-based, bovine
From the text: IVF Testable Unit Generation Design: This study utilizes sires from two breeds, Holstein and Jersey. The study design includes one ejaculate collection from 10 unique sires to generate sexed semen units in a split batch design with clofilium and a paired control.
Final breed tally of the collections were 7 Holsteins and 3 Jersey sires. Ejaculates selected for use in this trial were processed following standard production procedures outlined in detail below. Insemination doses, freeze canes, and all associated documentation were blind labeled during the incoming quality check. This was to prevent technician bias on quality control assessments after freeze-thaw as well as during the IVF outcome quantitation assessments.
After processing, the sexed semen was packaged and frozen during a regularly scheduled production freeze following standard operating procedures (SOPs). Within one week of unit generation, the outgoing quality control measurements were performed by a trained research technician. Post-thaw motile concentration and the presence/absence of bacterial contamination were completed. Insemination doses had to pass standard production outgoing quality control parameters to be utilized for the IVF trial.
Each facility received the two treatment groups for each individual ejaculate. The two treatments from each split ejaculate were used concurrently to fertilize oocytes from the same pooled batch of slaughterhouse oocytes.
Trained IVF technicians performed the outlined fertilizations. Day 2 cleavage rate, Day 7 and 8 blastocyst rates will be recorded, as well as polyspermy post-fertilization.
Oocyte prep: Four well fertilization plates are prepared by filling all 4 wells with 400 μL of BO-IVF (MOFA Verona, Wis.) and equilibrated in a 37° C. 5% CO2 for at least 1 hour. […]
Semen prep: Three insemination straws per treatment group are thawed at 37° C. for 45 seconds. […] A 5 μL sample aliquot is added to 95 μLs 4% NaCl to immobilize the cells, and cell concentration is quantified using a hemocytometer. Cells with visible membrane damage are not counted towards cell density calculations. […]

sperm cells [2] = test: Sexing cytometer metrics: eligible cells, skew; format: cell-based, bovine; settings: 5 μM, n=10 sires
Description: (§1) Sample Preparation for Sperm Sexing: A stained sample was prepared at room temperature that contained 200 M/mL sperm cells in 0.06 mg/mL Hoechst 33342 diluted to final volume in Stain TALP with Magnetic Beads with (+clofilium) or without (control) such that clofilium would be at a final concentration of 5 μM in the final stained sample volume. The sample was then incubated in a 37° C. water bath for 45 minutes. After 45 minutes Red Stain TALP was added to the stained sample in a 2:1 v/v ratio. The sample+Red TALP was then thoroughly mixed using inversion, filtered using tube top 20 μm Partec filters (Partec#04-0042-2315), and aliquoted into round bottom 5 mL tubes.
Sexing Cytometer Metrics: The stained, filtered sample was then run on proprietary sexing cytometers. The sample throughput was adjusted to 23,000 cells/sec and the detection and kill lasers were focused. To confirm proper laser focus, kill count assessments were performed before collecting sex skewed sample. A successful kill count has a population that is ≥75% dead and ≥95% sliced with at least 200 cells being counted. […] After a successful kill count, a gate was placed to collect the X chromosome cells, which is the cell population with the brighter Hoechst 33342 fluorescence as measured with a 355 nm wavelength excitation laser. […]

sperm cells [3] = test: Pre-freeze and post-freeze motile cell quantification (CASA); format: cell-based, bovine; settings: 5 μM, n=10 sires, compared to SOP
Description: Sex Skewed Sample Collection and Processing: The sample was run to collect between 300 and 400 mL of sex skewed sample, the composition of which is approximately 17% TRIS A (Part 1) buffer, 80% sheath fluid, and 2% cell sample. The sample was collected in 50 mL conical tubes containing 5 mLs of TRIS A (Part 1), and each tube was filled to a max volume of 30 mL before being replaced. After the requisite total volume was collected, sexed sperm was centrifuged at room temperature at 2400×g for 10 minutes. The supernatant was aspirated and discarded to reach a 1 mL pellet volume. 144 μL of TRIS A (Part 1)/GTLS mixture containing 40 μM clofilium or no clofilium (control) was added to each pellet after resuspension. The tubes were then placed in beakers filled with 150 mL of room temperature water, to prevent cold shock, and were then transferred to a 4° C. cold room. […] The concentration of progressively motile cells was determined using the Hamilton Thorne IVOS II with […] […] After which 20 μLs of sample is added to 20 μLs of QC diluent, gently vortexed for 5 seconds, and read on the CASA fluorescent settings described above. The remainder of the straw volume is spread on a blood agar plate and left at 37° C. for 24 hours before bacterial colonies are counted. […]

sexed semen samples = test: Cellular function of sexed semen samples (mitochondrial membrane potential, motility); format: cell-based; settings: sexed semen samples treated
sperm cells [4] = test: Staining sperm cells with Hoechst dye before sexing; format: cell-based; settings: present during staining with Hoechst dye
Description: as §1
Sexing Cytometer Metrics: The stained, filtered sample was then run on proprietary sexing cytometers. The sample throughput was adjusted to 23,000 cells/sec and the detection and kill lasers were focused. To confirm proper laser focus, kill count assessments were performed before collecting sex skewed sample. A successful kill count has a population that is ≥75% dead and ≥95% sliced with at least 200 cells being counted. If an instrument could not achieve the above metrics, the instrument was not used to collect sex skewed semen. After a successful kill count, a gate was placed to collect the X chromosome cells, which is the cell population with the brighter Hoechst 33342 fluorescence as measured with a 355 nm wavelength excitation laser. Cytometer performance metrics were collected 15 minutes after instrument set up, and 15 minutes after the placement of the last sample collection tube, including the height of the Y-peak, the height of the X-peak, the height of the trough from the histogram of events per emitted fluorescent intensity, gated %, and dead %.

**Q.** Which results are given for `CCCCCCC[N+](CC)(CC)CCCCc1ccc(Cl)cc1` [clofilium tosylate, N-[4-(4-chlorophenyl)butyl]-N,N-diethylheptan-1-aminium]?
**A.** percentage of normalized cleaved embryos at day 2 ([1]; 5 μM throughout the sexing process, N=2 sires, normalized to the control process, FIG. 3A): improvement; percentage of day 7 blastocysts ([1]; 5 μM throughout the sexing process, N=2 sires, normalized to the control process, FIG. 3B): improvement; fertility of semen, as assessed by embryo cleavage and blastocyst formation post-IVF ([1]; included in the sexing process): improves fertility; Skew (percentage of X-chromosome bearing sperm cells) (sperm cells [2]): remains unaffected; percentage of eligible cells (live, sexed X chromosome bearing cells) (sperm cells [2]; compared to SOP at start and end of the collection process, FIG. 4): increased eligible percent; number of straws obtained from a single sample catch tube (pre-freeze motile cell quantification) (sperm cells [3]; post instrument processing, FIG. 5): improvement; motile cells (in millions) per insemination dose (sperm cells [3]; post-freeze, FIGS. 6A, 6B): more motile cells; cellular function, as measured by mitochondrial membrane potential (sexed semen samples): increased cellular function; cellular function, as measured by motility (sexed semen samples): increased cellular function; eligibility (number of cells eligible for sexing) (sperm cells [4]): increase eligibility; resolution (separation of X- and Y-chromosome cell peaks in a histogram) (sperm cells [4]): increase resolution; sex skew (sperm cells [4]): increase; time required to achieve staining saturation (sperm cells [4]): reduce the time

— patent publication US20230337658A1, “COMPOSITIONS AND METHODS FOR ENHANCING SPERM CELL QUALITY” (ABS Global, Inc., priority 2022, published 2023)
